# Experimental data from US20250320245A1, “Nucleoside Analogues for the Treatment of Parasitic Infections” (Universiteit Antwerpen, priority 2021, published 2025).
# Read-outs that look alike come from different tables or passages of the source.
# Experiments:
# Type in all cases: cell-based
# [1] = Cytotoxicity assay on MRC-5 fibroblasts; conditions: human; for CC50 at 3 day: MRC-5SV2 embryonic lung fibroblasts, Table 1, mean and SEM of two independent experiments, highest concentration 64 μM, read-out: MRC-5 off-target cytotoxicity (CC50); for IC50 at 3 day: MRC-5SV2 human embryonic lung fibroblasts, Table 3, compounds wherein X=N
# Description: MRC-5SV2 (Sigma-Aldrich/ECACC, catalogue number 84100401) human embryonic lung fibroblasts were used to perform cytotoxicity assays. The cells were cultured in minimum essential medium (MEM, Life Technologies) with Earle's salt medium, supplemented with L-glutamine, NaHCO3 and 5% inactivated fetal bovine serum (iFBS). Cells were seeded at 1.5×10^4 cells/well and 4-fold compound dilutions were immediately added with a highest in-test concentration of 64 μM. After a 3-day incubation, resazurin (Sigma-Aldrich) was added to each well (final concentration of 10 μg mL^−1), and cell viability was assessed by fluorescent reading (Tecan®, GENios) following 4 h of incubation with resazurin (37° C./5% CO2). The results were expressed as percentage reduction in cell growth/viability compared to control wells and the 50% cytotoxic concentration (CC50) was calculated for each of the compounds.
# T. brucei (Squib 427) = assay: In vitro drug susceptibility assay, T. brucei; conditions: Trypanosoma brucei
# Description: (§1) Drug susceptibility assays with T. brucei (Squib 427), T. evansi type A (RoTat 1.2) and T. equiperdum (BoTat 1.1) were performed under similar conditions. Parasites were cultured in HMI-9 culture medium supplemented with 10% iFBS. To determine in vitro susceptibility of the abovementioned Trypanosoma species, 10 concentrations of a 4-fold dilution series (with a highest in-test concentration of 64 μM) was prepared for each compound, and parasites were seeded at 1.5×10^4 parasite/well. After 72 h of drug exposure at 37° C. with 5% CO2, resazurin was added to the wells (final concentration of 10 μg mL^−1), followed by another incubation for 24 h. Cell viability was determined by fluorescence reading (Tecan®, GENios) and 50% inhibitory concentration (IC50) was calculated for each compound.
# T. vivax (ILRAD700) = assay: Ex vivo drug susceptibility assay, T. vivax; conditions: Trypanosoma vivax
# From the text: T. congolense (IL3000), the isometamidium (ISM)-resistant T. congolense strain (MSORO M7H), T. evansi type A (RoTat 1.2), T. evansi type B (KETRI 2479) and T. equiperdum (BoTat 1.1) used for in vitro, ex vivo and in vivo experiments were kindly provided by the Institute of Tropical Medicine (ITM), and T. vivax (ILRAD700) and T. congolense (TC13) used for ex vivo and in vivo experiments, were kindly provided by the University of Brussel (VUB).
# Ex Vivo Drug Susceptibility Assays for T. vivax, T. congolense ISM-Resistant, and T. evansi Type B
# For Trypanosoma species/strains that were not adapted to culture conditions, donor mice were infected intraperitoneally with 10^4 parasites. Around day 5-6 post infection, blood was collected via cardiac puncture and parasites were isolated using mini-anion exchange centrifugation technique (mAECT). 4-fold dilutions of the test compounds were prepared with the highest concentration of 64 μM, and parasites were seeded at 1×10^5 parasite/well. Following 24 h of drug exposure at 37° C. and 5% CO2, resazurin was added to the wells and plates were incubated (37° C./5% CO2) for another 24 h. Cell viability was determined by fluorescence reading (Tecan®, GENios), and IC50 values were calculated by non-linear regression (dose-response curve with variable slope) using Prism 8.0 (GraphPad Software Inc., San Diego, CA, USA).
# T. congolense (IL3000) = assay: In vitro drug susceptibility assay, T. congolense; conditions: Trypanosoma congolense; Table 3; compounds wherein X=N
# Description: Drug susceptibility assays for T. congolense (IL3000) were performed with parasites cultured in HMI-9 medium supplemented with 15% horse serum. Parasites were seeded at a concentration of 1.5×10^4 parasite/well and exposed to a 4-fold compound dilution series starting at a highest in-test concentration of 64 μM. Plates were incubated for 72 h at 34° C. and 5% CO2, followed by the addition of resazurin (Sigma, Aldrich) and a further incubation period of 24 h. Cell viability was quantified by fluorescence reading (Tecan®, GENios), and IC50 values were calculated by non-linear regression (dose-response curve with variable slope) using Prism 8.0 (GraphPad Software Inc., San Diego, CA, USA).
# [2] = tested on: T. evansi type A (RoTat 1.2); assay: In vitro drug susceptibility assay, T. evansi type A; conditions: Table 3; compounds wherein X=N; type not stated; read-out: IC50 T. evansi
# Description: as §1
# [3] = tested on: T. equiperdum (BoTat 1.1); assay: In vitro drug susceptibility assay, T. equiperdum; conditions: Trypanosoma equiperdum; Table 3; compounds wherein X=N
# Description: as §1
# [4] = In vitro evaluation on PMM; conditions: mouse, Table 3, compounds wherein X=N
# T. cruzi = assay: In vitro evaluation against T. cruzi; conditions: Trypanosoma cruzi; Table 3; compounds wherein X=N
# L. infantum = assay: In vitro evaluation against L. infantum; conditions: Leishmania infantum; Table 3; compounds wherein X=N
# [5] = Table 1, mean and SEM of two independent experiments, read-out: T. brucei in vitro activity (IC50)
# [6] = Table 1, mean and SEM of two independent experiments, read-out: T. vivax in vitro activity (IC50)
# [7] = Table 3, compounds wherein X=N, read-out: IC50 T. brucei
# [8] = Table 3, compounds wherein X=N, read-out: IC50 T. vivax
Structure (SMILES),IC50 (T. brucei (Squib 427); [5]),IC50 (T. vivax (ILRAD700); [6]),IC50 (T. brucei (Squib 427); [7]),IC50 (T. vivax (ILRAD700); [8]),IC50 (T. congolense (IL3000)),IC50 [2],IC50 [3],IC50 [4],IC50 (T. cruzi),IC50 (L. infantum),CC50 at 3 day [1],IC50 at 3 day [1]
"OC[C@H]1O[C@@H](n2ccc3c(SCc4ccc(Cl)c(Cl)c4)ncnc32)[C@H](O)[C@@H]1O [FH15934, 4-S-(3,4-dichlorobenzyl)-N7-(β-D-ribofuranosyl)pyrrolo[2,3-d]pyrimidine]",85 ± 1 nM,8870 ± 90 nM,–,–,–,–,–,–,–,–,13900 ± 970 nM,–
"CCSc1ncnc2c1ccn2[C@@H]1O[C@H](CO)[C@@H](O)[C@H]1O [FH15938, 4-S-ethyl-N7-(β-D-ribofuranosyl)pyrrolo[2,3-d]pyrimidine]",250 ± 50 nM,31 ± 9 nM,–,–,–,–,–,–,–,–,28200 ± 2030 nM,–
"OC[C@H]1O[C@@H](n2ccc3c(SCCCc4ccccc4)ncnc32)[C@H](O)[C@@H]1O [FH15940, 4-(3-phenylpropyl)thio-N7-(β-D-ribofuranosyl)pyrrolo[2,3-d]pyrimidine]",106 ± 4 nM,8710 ± 1190 nM,–,–,–,–,–,–,–,–,24300 ± 940 nM,–
"CC(C)c1ccc(CSc2ncnc3c2ccn3[C@@H]2O[C@H](CO)[C@@H](O)[C@H]2O)cc1 [FH15941, 4-S-(4-isopropylbenzyl)-N7-(β-D-ribofuranosyl)pyrrolo[2,3-d]pyrimidine]",440 ± 20 nM,2370 ± 1470 nM,–,–,–,–,–,–,–,–,26900 ± 1380 nM,–
"OC[C@H]1O[C@@H](n2ccc3c(SC4CCCC4)ncnc32)[C@H](O)[C@@H]1O [FH15952, 4—S-cyclopentyl-N7-(β-D-ribofuranosyl)pyrrolo[2,3-d]pyrimidine]",91 ± 1 nM,620 ± 160 nM,–,–,–,–,–,–,–,–,45500 ± 1870 nM,–
"OC[C@H]1O[C@@H](n2ccc3c(SCCc4ccccc4)ncnc32)[C@H](O)[C@@H]1O [FH15953, 4-S-phenethyl-N7-(β-D-ribofuranosyl)pyrrolo[2,3-d]pyrimidine]",410 ± 10 nM,4930 ± 590 nM,–,–,–,–,–,–,–,–,28900 ± 1340 nM,–
"CCC(C)Sc1ncnc2c1ccn2[C@@H]1O[C@H](CO)[C@@H](O)[C@H]1O (stereo partly drawn) [FH15956, 4-S-sec-butyl-N7-(β-D-ribofuranosyl)pyrrolo[2,3-d]pyrimidine]",360 ± 40 nM,1980 ± 940 nM,–,–,–,–,–,–,–,–,> 64000 nM,–
"OC[C@H]1O[C@@H](n2ccc3c(SC4CCCCC4)ncnc32)[C@H](O)[C@@H]1O [FH15957, 4-S-cyclohexyl-N7-(β-D-ribofuranosyl)pyrrolo[2,3-d]pyrimidine]",190 ± 40 nM,3160 ± 710 nM,–,–,–,–,–,–,–,–,58800 ± 1370 nM,–
CC(C)Sc1ncnc2c1ccn2[C@@H]1O[C@H](CO)[C@@H](O)[C@H]1O [FH15958],540 ± 40 nM,460 ± 250 nM,–,–,–,–,–,–,–,–,> 64000 nM,–
COc1ccc(CSc2ncnc3c2ccn3[C@@H]2O[C@H](CO)[C@@H](O)[C@H]2O)cc1 [FH15960],130 ± 8 nM,820 ± 270 nM,–,–,–,–,–,–,–,–,> 64000 nM,–
"CSc1ncnc2c1cnn2[C@@H]1O[C@H](CO)[C@@H](O)[C@H]1O [JB1031, 4-methylthio-1-β-D-ribofuranosyl-1H-pyrazolo[3,4-d]pyrimidine]",–,–,540 nM,830 nM,70 nM,610 nM,90 nM,> 64000 nM,2150 nM,10800 nM,–,> 64000 nM
"CCSc1ncnc2c1cnn2[C@@H]1O[C@H](CO)[C@@H](O)[C@H]1O [JB1032, 4-ethylthio-1-β-D-ribofuranosyl-1H-pyrazolo[3,4-d]pyrimidine]",510 ± 50 nM,1360 ± 300 nM,450 nM,1420 nM,290 nM,390 nM,50 nM,> 64000 nM,5610 nM,5040 nM,> 64000 nM,> 64000 nM
"CCCCSc1ncnc2c1cnn2[C@@H]1O[C@H](CO)[C@@H](O)[C@H]1O [JB1033, 4-butylthio-1-β-D-ribofuranosyl-1H-pyrazolo[3,4-d]pyrimidine]",260 ± 10 nM,1210 ± 420 nM,110 nM,1200 nM,200 nM,60 nM,10 nM,> 64000 nM,7460 nM,7250 nM,> 64000 nM,> 64000 nM
"OC[C@H]1O[C@@H](n2ncc3c(SCc4ccccc4)ncnc32)[C@H](O)[C@@H]1O [JB1034, 4-benzylthio-1-β-D-ribofuranosyl-1H-pyrazolo[3,4-d]pyrimidine]",–,–,50 nM,7240 nM,30 nM,100 nM,20 nM,> 64000 nM,6020 nM,10100 nM,–,> 64000 nM

# Second part, led by results:
IC50 (T. brucei (Squib 427); [5]),IC50 (T. vivax (ILRAD700); [6]),IC50 (T. brucei (Squib 427); [7]),IC50 (T. vivax (ILRAD700); [8]),IC50 (T. congolense (IL3000)),IC50 [2],IC50 [3],IC50 [4],IC50 (T. cruzi),IC50 (L. infantum),Structure (SMILES),CC50 at 3 day [1],IC50 at 3 day [1]
19 ± 2 nM,32300 ± 4850 nM,–,–,–,–,–,–,–,–,OC[C@H]1O[C@@H](n2ccc3c(SCc4ccccc4)ncnc32)[C@H](O)[C@@H]1O [FH14905],> 64000 nM,–
30 ± 0.9 nM,23 ± 5 nM,–,–,–,–,–,–,–,–,"CCCSc1ncnc2c1ccn2[C@@H]1O[C@H](CO)[C@@H](O)[C@H]1O [FH15935, 4-S-propyl-N7-(β-D-ribofuranosyl)pyrrolo[2,3-d]pyrimidine]",> 64000 nM,–
30 ± 0.1 nM,24 ± 7 nM,–,–,–,–,–,–,–,–,CCCCSc1ncnc2c1ccn2[C@@H]1O[C@H](CO)[C@@H](O)[C@H]1O [FH15936],> 64000 nM,–
31 ± 1 nM,2190 ± 610 nM,–,–,–,–,–,–,–,–,"CCCCCSc1ncnc2c1ccn2[C@@H]1O[C@H](CO)[C@@H](O)[C@H]1O [FH15937, 4—S-pentyl-N7-(β-D-ribofuranosyl)pyrrolo[2,3-d]pyridimidine]",35300 ± 1000 nM,–
32 ± 21 nM,690 ± 250 nM,–,–,–,–,–,–,–,–,"OC[C@H]1O[C@@H](n2ccc3c(SCC4CCCC4)ncnc32)[C@H](O)[C@@H]1O [FH15939, 4-cylopentylmethylthio-N7-(β-D-ribofuranosyl)pyrrolo[2,3-d]pyrimidine]",32300 ± 1000 nM,–
30 ± 4 nM,230 ± 20 nM,–,–,–,–,–,–,–,–,"CC(C)CCSc1ncnc2c1ccn2[C@@H]1O[C@H](CO)[C@@H](O)[C@H]1O [FH15954, 4-S-isopentyl-N7-(β-D-ribofuranosyl)pyrrolo[2,3-d]pyrimidine]",43200 ± 2630 nM,–
32 ± 1 nM,21 ± 2 nM,–,–,–,–,–,–,–,–,"CC(C)CSc1ncnc2c1ccn2[C@@H]1O[C@H](CO)[C@@H](O)[C@H]1O [FH15955, 4-S-2-methylpropyl-N7-(β-D-ribofuranosyl)pyrrolo[2,3-d]pyrimidine]",> 64000 nM,–
31 ± 1 nM,18800 ± 650 nM,–,–,–,–,–,–,–,–,"Cc1ccc(CSc2ncnc3c2ccn3[C@@H]2O[C@H](CO)[C@@H](O)[C@H]2O)cc1 [FH15959, 4-S-(4-methylbenzyl)-N7-(β-D-ribofuranosyl)pyrrolo[2,3-d]pyrimidine]",> 64000 nM,–
31 ± 10 nM,2860 ± 260 nM,–,–,–,–,–,–,–,–,"OC[C@H]1O[C@@H](n2ccc3c(SCC4CCCCC4)ncnc32)[C@H](O)[C@@H]1O [FH15962, 4-S-cyclohexylmethyl-N7-(β-D-ribofuranosyl)pyrrolo[2,3-d]pyrimidine]",19000 nM,–
